Key:
[1] = Brain to plasma ratio (B:P); type: in vivo; details: male, CD-1, mouse, brain and plasma, po, 7.5 mg/kg, fasted male CD-1 mice, 4 hours post-dose, average
Method: Raw brain-to-plasma ratios (B:P) were determined by dividing the brain concentration in ng/g by the plasma concentration in ng/g (with plasma, density assumed to be of 1 g/mL). The average B:P ratio was determined to be approximately 0.08±0.3 (FIG. 12). No further CFI-400945 pharmacokinetic studies were done as part of this study.
Male CD-1 mice weighing between 20 and 40 grams were fitted with jugular vein cannulas as appropriate and fasted overnight until 4 hours post-dose. Double route of administration (oral and IV) were tested, with a single dose concentration of 7.5 mg/kg. Plasma and brain were sampled at 6 time-points, starting at 30 minutes (n=3 animals/time-point). Brain was extracted at the same plasma sampling time-point from each animal. Both plasma and brain samples were deproteinated. Brain samples were weighted, homogenized and CFI-400945 was extracted. […] The dosing solution was normalized in a matched matrix (mouse plasm) and analyzed in triplicate in the same analytical batch as the incurred samples (Absorption Systems—Exton, Pa.).

[2] = system: HFF-SCC058 human fibroblasts; experiment: Invasion and migration assays (Transwell); type: cell-based; details: 100 nM, 24 hr
Method: Both migration and invasion were assessed using a 24-well Transwell chamber system (Corning, USA).[35] MON cells were plated at 20,000 per well for cell migration and at 50,000 per well coated with matrigel (200 μg/ml, 3 hr of solidification) for cell invasion. HFF-SCC058 cells were used as negative controls. […] All experiments were performed in triplicates.

COc1ccc2c(c1)[C@]1(C[C@H]1c1ccc3c(/C=C/c4ccc(CN5C[C@@H](C)O[C@@H](C)C5)cc4)n[nH]c3c1)C(=O)N2 [CFI-400945]
Kp at 4 h [1]: ~0.08 | invasion and migration [2]: no effects were observed

Reference: patent US11197863B2, “Inhibitors of polo-like kinase 4 (PLK4) for treating pediatric embryonal tumors” (ANN AND ROBERT H. LURIE CHILDREN'S HOSPITAL OF CHICAGO, priority 2017, dated 2021)
